Measurements from PMC8397425, “A Strategy to Conjugate Bioactive Fragments to Cytotoxic Diiron Bis(cyclopentadienyl) Complexes” (Organometallics, 2021).
Marks after values point to notes of the source that are not given here.

Key:
[1] = test system: natural double-stranded DNA from calf thymus; assay: Ethidium bromide (EB) exchange test with DNA; format: binding; settings: NaCl 0.1 M, NaCac 0.01 M, T = 25 °C; complex 1.4–135 μM
Protocol: The ability of [4]CF3SO3 and [9]CF3SO3 to interact with natural DNA was studied using the ethidium bromide (EB) exchange test (Figure 6), with the concentration of the complexes beingin the 1.5–124 μM range for [4]CF3SO3 and 1.4–135 μM for [9]CF3SO3. Blank experiments were carried out with the two bioactive molecules and also with DMSO to check for solvent/dilution effects. […] However, EB exchange titrations are suitable to recognize fast noncovalent binding events, but not subsequent slow covalent binding. […]
Ethidium bromide (EB, ≥98.0%), bovine serum albumin (BSA, lyophilized powder, crystallized, ≥98.0%), and natural double-stranded DNA from calf thymus (DNA, lyophilized powder, Na^+ salt in the form of fibers) were purchased from Merck, while anhydrous guanosine 5′-monophosphate disodium salt (Na2[GMP], >98.0%) was purchased from TCI Chemicals. […] Molar concentrations of solutions of EB (CEB), BSA (CBSA), and DNA (CDNA) were determined by absorbance measurements (εEB^480 nm = 5700 M^–1 cm^–1; εBSA^278 nm = 44000 M^–1 cm^–1; εDNA^260 nm = 13200 M^–1 cm^–1 for a concentration expressed in base pairs). […] In EB/DNA exchange experiments, EB was added to DNA until the fluorescence emission at λex = 520 nm/λem = 595 nm (diagnostic wavelengths for the DNA-intercalated EB only) started to reach the plateau (CEB = 5.60 × 10^–5 M, CDNA = 1.15 × 10^–4 M). […]

[2] = Solubility in D2O by 1H NMR; format: physicochemical; settings: Me2SO2 internal standard, T = 21 °C
Protocol: The solubility of the complexes in D2O was assessed using ^1H NMR spectroscopy (see Table 1 and the Experimental Section for details). […] Data from the literature for the related nonfunctionalized complexes [2′,3′]CF3SO3 are compiled in Table 1 for comparison.[11] The octanol–water partition coefficients (Log Pow) were measured using a UV–vis method and fall within the −0.2 to +1.2 range (Table 1). […] For instance, Log Pow values of 1.07 and 0.65 are obtained for the geometric isomers [9]CF3SO3 and [10]CF3SO3, respectively.

[3] = Stability in D2O/DMSO at 37 °C by 1H NMR; format: physicochemical; settings: 24 h at 37 °C
Protocol: Conversely, [3–7]CF3SO3, containing either {Aryl–OCOAsp} or {Aryl-NHCOAsp} moieties, were stable under the same conditions. […] Complete conversion into the bis-hydroxide [8^2OH]^+ was achieved within 72 h. Similarly, [9,10]CF3SO3 undergo activation of the {C–Cl} bonds to give mixtures of the partially Cl/OH substituted species [9^OH]^+ and [10^OH]^+ and the fully substituted species [9^2OH]^+ and [10^2OH]^+.

Row | Substance | interaction with natural DNA (EB displacement) [1] | solubility [2] | stability (%), residual percent of complex ([3]; D2O/DMSO 2/1 v/v) | stability (%), total percentage of diiron complexes with a chlorambucil-like group ([3]; D2O/DMSO 1/1 v/v)
1 | [Fe2Cp2(CO)(μ-CO){μ-η^1:η^3-Cγ(3-C6H4OC(=O)C6H4OC(=O)Me)CβHCαNMe(Xyl)}]CF3SO3 [[4]CF3SO3] | interact weakly with natural DNA | <1 × 10^–4 mol L^–1 | 59% | –
2 | [Fe2Cp2(CO)(μ-CO){μ-η^1:η^3-Cγ(3-C6H4NHC(=O)(CH2)3C6H4N(CH2CH2Cl)2)CβHCαNMe2}]CF3SO3 [[9]CF3SO3] | interact weakly with natural DNA | <1 × 10^–4 mol L^–1 | – | 88 ^b %
